The target of one test is T1, serotonin transporter (Rattus norvegicus, UniProt P31652).
T1 construct: displace ^3H-paroxetine from male rat frontal cortical membranes; from tissue; host or cells: male rat frontal cortex membranes
The test is described as follows: Displacement of 3H-paroxetine from male rat frontal cortical membranes (serotonin transporter affinity). The test is classed as binding. Conditions: read-out: 5-HT Transporter Affinity KI.

The target in another test is T2, human 5-HT1A receptors (Homo sapiens, UniProt P08908).
T2 construct: expressed in transfected cells; host or cells: CHO cells
T2 sequence (P08908 1-422): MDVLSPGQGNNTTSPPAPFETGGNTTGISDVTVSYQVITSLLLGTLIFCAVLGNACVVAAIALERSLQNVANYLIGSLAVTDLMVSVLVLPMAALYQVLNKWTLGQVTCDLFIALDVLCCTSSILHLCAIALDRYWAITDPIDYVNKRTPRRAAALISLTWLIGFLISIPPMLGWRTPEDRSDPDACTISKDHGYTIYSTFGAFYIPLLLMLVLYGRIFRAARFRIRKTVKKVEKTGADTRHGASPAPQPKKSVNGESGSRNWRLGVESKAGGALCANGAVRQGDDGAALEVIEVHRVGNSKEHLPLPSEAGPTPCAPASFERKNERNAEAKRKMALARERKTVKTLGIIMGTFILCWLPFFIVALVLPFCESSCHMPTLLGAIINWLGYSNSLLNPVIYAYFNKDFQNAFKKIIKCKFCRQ
The test is described as follows: Displacement of [3H] 8-OHDPAT from 5-HT1A receptor, CHO cells stably transfected with human 5-HT1A receptors. The test is classed as binding. Particulars: CHO cells with human 5-HT1A receptors, read-out: 5-HT1A Receptor Affinity KI. The text has this:
High affinity for the serotonin 5-HT1A receptor was established by testing the claimed compound's ability to displace [^3H] 8-OHDPAT (dipropylaminotetralin) from the 5-HT1A serotonin receptor following a modification of the procedure of Hall et al., J. Neurochem. 44, 1685 (1985) which utilizes CHO cells stably transfected with human 5-HT1A receptors.
For orientation: Displacement assays read how much labelled ligand stays bound in the presence of the test substance.

The target of test [1] is T3, cloned human 5HT1A receptors (Homo sapiens, UniProt P08908).
T3 construct: expressed in transfected cells
T3 sequence (P08908 1-422): T2 sequence (P08908 1-422)
The test is described as follows: 35S-GTPγS binding assay, membranes containing cloned human 5HT1A receptors. The test is classed as biochemical. Particulars: for IC50: antagonist potency, reversal of the effects of the standard agonist 8-OHDPAT, read-out: 5-HT1A Function IC50; for Emax: read-out: 5-HT1A Function (Imax). As for the experimental part: Antagonist activity at 5-HT1A receptors was established by using a ^35S-GTPγS binding assay similar to that used by Lazareno and Birdsall (Br. J. Pharmacol. 109: 1120, 1993), in which the test compound's ability to affect the binding of ^35S-GTPγS to membranes containing cloned human 5HT1A receptors was determined. Agonists produce an increase in binding whereas antagonists produce no increase but rather reverse the effects of the standard agonist 8-OHDPAT. The test compound's maximum inhibitory effect is represented as the Imax, while its potency is defined by the IC50.

T1 sequence (P31652 whole entry): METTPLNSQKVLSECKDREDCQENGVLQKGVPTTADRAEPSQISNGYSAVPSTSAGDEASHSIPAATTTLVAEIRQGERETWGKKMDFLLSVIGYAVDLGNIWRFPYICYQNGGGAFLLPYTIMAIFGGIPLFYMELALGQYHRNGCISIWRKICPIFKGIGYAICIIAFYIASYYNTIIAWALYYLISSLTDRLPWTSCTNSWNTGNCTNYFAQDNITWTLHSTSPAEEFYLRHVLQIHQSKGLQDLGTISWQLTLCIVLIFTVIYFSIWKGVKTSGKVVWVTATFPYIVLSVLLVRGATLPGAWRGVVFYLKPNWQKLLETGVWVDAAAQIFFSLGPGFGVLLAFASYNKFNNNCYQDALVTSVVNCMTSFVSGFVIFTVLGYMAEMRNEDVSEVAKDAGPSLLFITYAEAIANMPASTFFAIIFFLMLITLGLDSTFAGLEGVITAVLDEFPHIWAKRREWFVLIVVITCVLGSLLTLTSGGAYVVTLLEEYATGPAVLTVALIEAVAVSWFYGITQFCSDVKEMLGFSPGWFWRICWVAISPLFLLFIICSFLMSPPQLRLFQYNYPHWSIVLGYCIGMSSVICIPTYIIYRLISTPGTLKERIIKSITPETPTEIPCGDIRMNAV

In general, Ki refers to the equilibrium dissociation constant of an inhibitor or competing ligand from its target. Broadly, the IC50 is the point on the concentration scale where inhibition reaches its midpoint. Consider `Cc1ccc2c3c(ccc2n1)OC[C@H](CN(C)CCCc1csc2ccccc12)O3` [Example 22, N-[3-(1-Benzothien-3-yl)propyl]-N-methyl-N-(8-mthyl-2,3-dihydro-[1,4]dioxino[2,3-f]quinolin-2-ylmthyl)amin], for which the values for the Ki on serotonin transporter and on human 5-HT1A receptors were 4.3 nM and 7.12 nM, respectively. Besides, the IC50 in test [1] was 878 nM. For the same compound, the Emax in test [1] (maximum inhibitory effect) is 85.5%.

With `Fc1ccc2[nH]cc(CCCNC[C@H]3COc4ccc5ncccc5c4O3)c2c1` [Example 14, N-(2,3-Dihydro-[1,4]dioxino[2,3-f]quinolin-2-ylmthyl)-N-[3-(5-fluoro-1H-indol-3-yl)propyl]amine], the Ki was determined as 1 nM on serotonin transporter and 1.03 nM at human 5-HT1A receptors. Further, the IC50 in test [1] was 507 nM. In test [1] (maximum inhibitory effect), the Emax amounted to 100%.

For `Cc1ccc2c3c(ccc2n1)OCC(CNCCCn1ccc2c(F)cccc21)O3` (centres unmarked) [Example 46, [3-(4-Fluoro-indol-1-yl)-propyl]-(8-methyl-2,3-dihydro-[1,4]dioxino[2,3-f]quinolin-2-ylmethyl)-amine], the Ki is 6.7 nM on serotonin transporter and 0.05 nM on human 5-HT1A receptors. For the same compound, the concentration for half-maximal inhibition (IC50) in test [1] was found to be 31.4 nM. For the same compound, the Emax in test [1] (maximum inhibitory effect) was 85.6%.

As to `Cc1ccc2c3c(ccc2n1)OC[C@H](CNCCCc1csc2ccc(Cl)cc12)O3` [Example 50], the results for the Ki at serotonin transporter and at human 5-HT1A receptors were 9.7 nM and 0.45 nM, respectively. For the same compound, the half-maximal inhibitory concentration (IC50) in test [1] stood at 69 nM. For the same compound, the Emax in test [1] (maximum inhibitory effect) was found to be 50%.

As for `Cc1ccc2c3c(ccc2n1)OCC(CN(C)CCCc1cn(C)c2c(F)cc(F)cc12)O3` (centres unmarked) [Example 27, N-[3-(5,7-Difluoro-1-methyl-1H-indol-3-yl)propyl]-N-methyl-N-(8-methyl-2,3-dihydro-[1,4]dioxino[2,3-f]quinolin-2-ylmethyl)amine], the inhibitory constant (Ki) on serotonin transporter came to 6.7 nM; on human 5-HT1A receptors, 52.9 nM. Moreover, the IC50 in test [1] is 341 nM. Further, in test [1] (maximum inhibitory effect), the Emax was 100%.

Turning to `Cc1ccc2c3c(ccc2n1)OC[C@H](CNCCCc1coc2ccccc12)O3` [Example 18], the Ki at serotonin transporter came to 6.6 nM; at human 5-HT1A receptors, 0.35 nM. In test [1], the IC50 was found to be 10.4 nM. Also, in test [1] (maximum inhibitory effect), the Emax stood at 59.3%.

For the compound `CN(CCCc1c[nH]c2ccc(F)cc12)CC1COc2ccc3ncccc3c2O1` (centres unmarked) [Example 15, N-(2,3-Dihydro-[1,4]dioxino[2,3-f]quinolin-2-ylmethyl)-N-[3-(5-fluoro-1H-indol-3-yl)propyl]-N-methylamine], the results for the Ki at serotonin transporter and on human 5-HT1A receptors were 1.6 nM and 5.16 nM, respectively. In addition, in test [1], the IC50 was 412 nM. The Emax in test [1] (maximum inhibitory effect) worked out at 100%.

With `Cc1ccc2c3c(ccc2n1)OC[C@H](CNCCCc1csc2ccccc12)O3` [Example 20], the Ki at serotonin transporter was 2.82 nM; at human 5-HT1A receptors it was 0.38 nM. Besides, the IC50 in test [1] was found to be 188 nM. Further, the Emax in test [1] (maximum inhibitory effect) is 100%.

Take `CCN(CCCc1c[nH]c2ccc(F)cc12)C[C@H]1COc2ccc3nc(C)oc3c2O1` [Example 36, Ethyl-[3-(5-fluoro-1H-indol-3-yl)-propyl]-(2-methyl-7,8-dihydro-[1,4]dioxino[2,3-g][1,3]benzoxazol-8-ylmethyl)-amine]: the Ki at serotonin transporter was determined as 1.9 nM; on human 5-HT1A receptors, 16.3 nM. In addition, the IC50 in test [1] worked out at 486 nM. Besides, in test [1] (maximum inhibitory effect), the Emax came to 91.9%.

On to `CCc1ccc2c3c(ccc2n1)OCC(CNCCCc1c[nH]c2ccc(F)cc12)O3` (centres unmarked) [Example 5, N-[3-(5-Fluoro-1H-Indol-3-yl)propyl]-N-(8-ethyl-2,3-dihydro-[1,4]dioxino[2,3-f]quinolin-2-ylmethyl)amine], for which the Ki was 0.96 nM at serotonin transporter and 0.64 nM at human 5-HT1A receptors. In addition, the IC50 in test [1] was determined as 92.5 nM. Moreover, in test [1] (maximum inhibitory effect), the Emax amounted to 76.8%.

As for `Cc1ccc2c3c(ccc2n1)OCC(CNCCCCn1ccc2ccc(F)cc21)O3` (centres unmarked) [Example 38, [4-(6-Fluoro-indol-1-yl)-butyl]-(8-methyl-2,3-dihydro-[1,4]dioxino[2,3-f]quinolin-2-ylmethyl)-amine], the Ki at serotonin transporter is 1.31 nM; at human 5-HT1A receptors, 0.06 nM. Besides, in test [1], the IC50 amounted to 25.8 nM. Moreover, in test [1] (maximum inhibitory effect), the Emax is 85.5%.

For `Cc1ccc2c3c(ccc2n1)OC[C@H](CN(C)CCCc1c[nH]c2ccc(C#N)cc12)O3` [Example 32], the Ki on serotonin transporter came out at 1 nM; at human 5-HT1A receptors, 5.46 nM. Besides, in test [1], the IC50 stood at 233 nM. Moreover, in test [1] (maximum inhibitory effect), the Emax came to 100%.

With `Cc1ccc2c3c(ccc2n1)OC[C@H](CNCCCc1c[nH]c2ccc(F)cc12)O3` [Example 3, N-[3-(5-Fluoro-1H-Indolyl-3-yl)propyl]-N-(8-methyl-2,3-dihydro-[1,4]dioxino[2,3-f]quinolin-2-ylmethyl)amine], the figures for the Ki on serotonin transporter and at human 5-HT1A receptors were 0.41 nM and 0.27 nM, respectively. For the same compound, the IC50 in test [1] was determined as 10.6 nM. Besides, the Emax in test [1] (maximum inhibitory effect) is 98.7%.

For the compound `CCCN(CCCc1c[nH]c2ccc(F)cc12)CC1COc2ccc3nc(C)ccc3c2O1` (centres unmarked) [Example 45, [3-(5-Fluoro-1H-indol-3-yl)-propyl]-(8-methyl-2,3-dihydro-[1,4]dioxino[2,3-f]quinolin-2-ylmethyl)-propyl-amine], the Ki at serotonin transporter worked out at 1 nM; on human 5-HT1A receptors, 108 nM. Besides, in test [1], the IC50 amounted to 1090 nM. In addition, the Emax in test [1] (maximum inhibitory effect) came out at 100%.

Take `Cc1ccc2c3c(ccc2n1)OCC(CNCCCn1ccc2ccc(F)cc21)O3` (centres unmarked) [Example 33, [3-(6-Fluoro-indol-1-yl)-propyl]-(8-methyl-2,3-dihydro-[1,4]dioxino[2,3-f]quinolin-2-ylmethyl)amine]: the Ki worked out at 2.2 nM on serotonin transporter and 21.2 nM at human 5-HT1A receptors. Moreover, in test [1], the 50% inhibitory concentration (IC50) came to 200 nM. Moreover, the Emax in test [1] (maximum inhibitory effect) was 73.5%.

`Cc1ccc2c3c(ccc2n1)OCC(CNCCCc1c[nH]c2ccc(C#N)cc12)O3` (centres unmarked) [Example 29, 3-{3-[(8-Methyl-2,3-dihydro-[1,4]dioxino[2,3-f]quinolin-2-ylmethyl)-amino]-propyl}-1H-indole-5-carbonitrile]: the inhibition constant (Ki) came to 0.9 nM at serotonin transporter and 1.64 nM on human 5-HT1A receptors. Moreover, the half-inhibitory concentration (IC50) in test [1] amounted to 55.8 nM. Further, the Emax in test [1] (maximum inhibitory effect) was determined as 94%.

For `Cc1ccc2c3c(ccc2n1)OCC(CNCCCCc1cn(C)c2ccc(F)cc12)O3` (centres unmarked) [Example 35, [4-(5-Fluoro-1-methyl-1H-indol-3-yl)-butyl]-(8-methyl-2,3-dihydro-[1,4]dioxino[2,3-f]quinolin-2-ylmethyl)-amine], the Ki on serotonin transporter was 2.4 nM; at human 5-HT1A receptors, 0.56 nM. For the same compound, the IC50 in test [1] is 66.6 nM. Also, the Emax in test [1] (maximum inhibitory effect) turned out to be 78.9%.

For `Cc1ccc2c3c(ccc2n1)OC[C@H](CNCCCCc1csc2ccc(Cl)cc12)O3` [Example 49], the Ki was 23 nM at serotonin transporter and 0.73 nM at human 5-HT1A receptors. For the same compound, in test [1], the IC50 worked out at 99 nM. Also, the Emax in test [1] (maximum inhibitory effect) amounted to 33%.

Consider `Cc1ccc2c3c(ccc2n1)OCC(CN(C)CCCCn1ccc2ccc(F)cc21)O3` (centres unmarked) [Example 47, [4-(6-Fluoro-indol-1-yl)-butyl]-methyl-(8-methyl-2,3-dihydro-[1,4]dioxino[2,3-f]quinolin-2-ylmethyl)-amine], for which the Ki at serotonin transporter came to 1 nM; at human 5-HT1A receptors, 4.42 nM. Further, in test [1], the IC50 amounted to 191 nM. In test [1] (maximum inhibitory effect), the Emax came out at 75.2%.

For `Cc1ccc2c3c(ccc2n1)OCC(CN(C)CCCCc1cn(C)c2ccc(F)cc12)O3` (centres unmarked) [Example 44, [4-(5-Fluoro-1-methyl-1H-indol-3-yl)-butyl]-methyl-(8-methyl-2,3-dihydro-[1,4]dioxino[2,3-f]quinolin-2-ylmethyl)-amine], the Ki stood at 3.4 nM at serotonin transporter and 9.99 nM on human 5-HT1A receptors. Also, the IC50 in test [1] worked out at 372 nM. Further, in test [1] (maximum inhibitory effect), the Emax came to 100%.

With `COc1cccc2c(CCCNCC3COc4ccc5nc(C)ccc5c4O3)coc12` (centres unmarked) [Example 19, N-[3-(7-Methoxy-1-benzofuran-3-yl)propyl]-N-(8-methyl-2,3-dihydro-[1,4]dioxino[2,3-f]quinolin-2-ylmethyl)amine], the Ki on serotonin transporter worked out at 14.6 nM; at human 5-HT1A receptors, 0.2 nM. In addition, the IC50 in test [1] worked out at 50.1 nM. Moreover, in test [1] (maximum inhibitory effect), the Emax turned out to be 95.4%.

In the case of `Cc1ccc2c3c(ccc2n1)OCC(CNCCCc1c[nH]c2c(F)cc(F)cc12)O3` (centres unmarked) [Example 13, N-[3-(5,7-Difluoro-1H-indol-3-yl)propyl]-N-(8-methyl-2,3-dihydro-[1,4]dioxino[2,3-f]quinolin-2-ylmethyl)amine], the figures for the Ki at serotonin transporter and at human 5-HT1A receptors were 1.05 nM and 0.32 nM, respectively. Further, the IC50 in test [1] worked out at 64.6 nM. Besides, the Emax in test [1] (maximum inhibitory effect) amounted to 95%.

Turning to `Cc1ccc2c3c(ccc2n1)OCC(CNC(C)CCc1c[nH]c2ccc(F)cc12)O3` (single isomer, unassigned; isomer a) [Example 11 Isomer A], the results for the Ki on serotonin transporter and on human 5-HT1A receptors were 1.62 nM and 1.68 nM, respectively. In test [1], the IC50 was determined as 27.8 nM. For the same compound, in test [1] (maximum inhibitory effect), the 5-HT1A Function (Imax) was 78.3%.

Source of the values: patent publication US6800637B2, “Antidepressant indolealkyl derivatives of heterocycle-fused benzodioxan methylamines” (Wyeth, priority 2002, dated 2004).
